Laboratory results published in BindingDB's records for doi:10.3109/14756366.2013.777334 (S.G.S.I.T.S., 2014).

biological target: Carbonic anhydrase 12 (Homo sapiens, UniProt O43570); assay: CA Inhibition Assay; settings: pH 7.5; 4 °C
Method: (§1) An applied photophysics stopped-flow instrument has been used for assaying the CA catalyzed CO2 hydration activity. […] The CO2 concentrations ranged from 1.7 to 17mM for the determination of the kinetic parameters and inhibition constants. […] The uncatalyzed rates were determined in the same manner and subtracted from the total observed rates. Stock solutions of inhibitor (0.1mM) were prepared in distilled-deionized water and dilutions up to 0.01nM were done thereafter with distilled deionized water.

Sequence of Carbonic anhydrase 12 (O43570 whole entry): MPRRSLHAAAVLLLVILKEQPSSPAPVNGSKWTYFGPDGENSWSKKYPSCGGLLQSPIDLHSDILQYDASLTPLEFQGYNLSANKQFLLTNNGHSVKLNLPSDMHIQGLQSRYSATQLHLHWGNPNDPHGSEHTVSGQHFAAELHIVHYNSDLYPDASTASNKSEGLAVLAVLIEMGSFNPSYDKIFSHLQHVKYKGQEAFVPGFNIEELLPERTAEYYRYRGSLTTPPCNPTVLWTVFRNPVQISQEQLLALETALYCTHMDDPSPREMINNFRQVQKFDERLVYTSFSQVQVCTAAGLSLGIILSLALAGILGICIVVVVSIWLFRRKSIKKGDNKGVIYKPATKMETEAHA

Row | Compound | Ki
1 | Cc1cc(=O)oc2cc3ccccc3cc12 [4-Methyl-2H-benzo[g]chromen-2-one (5)] | 3.3 µM
2 | Cc1cc(=O)oc2c1ccc1ccccc12 [4-Methyl-2H-benzo[h]chromen-2-one (4)] | 5.5 µM
3 | Cc1cc(=O)oc2cc(O)ccc12 [4-Methyl-7-hydroxycoumarin] | 4.3 µM
4 | Cc1cc(=O)oc2c(O)c(O)ccc12 [7,8-Dihydroxy-4-methyl-2H-chromen-2-one (3)] | 6.6 µM
5 | Cc1cc(=O)oc2cc(O)cc(O)c12 [Coumarin derivative, 1b] | 6.4 µM

biological target: Carbonic anhydrase 1 (Homo sapiens, UniProt P00915); assay: CA Inhibition Assay; settings: pH 7.5; 4 °C
Method: as §1

Sequence of Carbonic anhydrase 1 (P00915 whole entry): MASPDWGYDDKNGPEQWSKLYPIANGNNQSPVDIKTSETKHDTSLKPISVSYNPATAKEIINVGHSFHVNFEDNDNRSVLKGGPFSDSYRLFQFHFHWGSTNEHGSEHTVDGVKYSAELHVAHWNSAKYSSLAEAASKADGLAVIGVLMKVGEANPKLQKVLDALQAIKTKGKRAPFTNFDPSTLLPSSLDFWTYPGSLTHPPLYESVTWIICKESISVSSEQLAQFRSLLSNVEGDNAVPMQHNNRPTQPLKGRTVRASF

Row | Compound | Ki
6 | Cc1cc(=O)oc2cc3ccccc3cc12 [4-Methyl-2H-benzo[g]chromen-2-one (5)] | 8.2 µM
7 | Cc1cc(=O)oc2c1ccc1ccccc12 [4-Methyl-2H-benzo[h]chromen-2-one (4)] | 9 µM
8 | Cc1cc(=O)oc2cc(O)ccc12 [4-Methyl-7-hydroxycoumarin] | 4.8 µM
9 | Cc1cc(=O)oc2c(O)c(O)ccc12 [7,8-Dihydroxy-4-methyl-2H-chromen-2-one (3)] | 8.7 µM
10 | Cc1cc(=O)oc2cc(O)cc(O)c12 [Coumarin derivative, 1b] | 8.4 µM

biological target: Carbonic anhydrase 2 (Homo sapiens, UniProt P00918); assay: CA Inhibition Assay; settings: pH 7.5; 4 °C
Method: as §1

Row | Compound | Ki
11 | Cc1cc(=O)oc2cc3ccccc3cc12 [4-Methyl-2H-benzo[g]chromen-2-one (5)] | > 200 µM
12 | Cc1cc(=O)oc2c1ccc1ccccc12 [4-Methyl-2H-benzo[h]chromen-2-one (4)] | > 200 µM
13 | Cc1cc(=O)oc2cc(O)ccc12 [4-Methyl-7-hydroxycoumarin] | > 200 µM
14 | Cc1cc(=O)oc2c(O)c(O)ccc12 [7,8-Dihydroxy-4-methyl-2H-chromen-2-one (3)] | > 200 µM
